For four molecules, TGI results are on record in PubChem BioAssay (NCI).

In general, TGI refers to the concentration at which net growth stops. A higher TGI goes with less potent growth arrest.

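Following 48 hours of exposure in 96-well plates, responses at five concentrations were used to interpolate endpoints linearly. The concentration for full growth arrest is given as TGI.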

The first assay relates to SK-MEL-2 melanoma. In words: DTP human tumour cell line panel, 48 h.
The molecule `O=C1[C@H]2ON(c3ccccc3)C(c3ccc(Cl)cc3)[C@H]2C(=O)N1c1ccc(Cc2ccc(N3C(=O)[C@@H]4ON(c5ccccc5)C(c5ccc(Cl)cc5)[C@@H]4C3=O)cc2)cc1` (some centres not stated) displayed a TGI greater than 100 µM.

As for `Oc1cc(C2OCCCO2)cc(O)c1O`, the TGI is greater than 100 µM.

Another assay relates to SK-MEL-28 melanoma. In words: DTP human tumour cell line panel, 48 h.
`COc1ccc(C2c3cc(OC)c(OC)cc3C(Cc3ccc([N+](=O)[O-])cc3)C2c2ccc([N+](=O)[O-])cc2)cc1OC` (configuration not stated) registered a TGI greater than 100 µM.

The molecule `O=C1c2ccc3c4ccccc4n(Cc4ccccc4)c3c2C(=O)N1c1ccccc1` came in with a concentration for total growth inhibition (TGI) of 31.3 µM.

Turning to `O=C1[C@H]2ON(c3ccccc3)C(c3ccc(Cl)cc3)[C@H]2C(=O)N1c1ccc(Cc2ccc(N3C(=O)[C@@H]4ON(c5ccccc5)C(c5ccc(Cl)cc5)[C@@H]4C3=O)cc2)cc1` (some centres not stated), the TGI is greater than 100 µM.

`Oc1cc(C2OCCCO2)cc(O)c1O` had a TGI greater than 100 µM.

The next assay relates to SK-MEL-5 melanoma. As to the kind of experiment: DTP human tumour cell line panel, 48 h.
Regarding `COc1ccc(C2c3cc(OC)c(OC)cc3C(Cc3ccc([N+](=O)[O-])cc3)C2c2ccc([N+](=O)[O-])cc2)cc1OC` (configuration not stated), the TGI is greater than 100 µM.

On to `O=C1c2ccc3c4ccccc4n(Cc4ccccc4)c3c2C(=O)N1c1ccccc1`, for which the TGI worked out at 29.9 µM.

`O=C1[C@H]2ON(c3ccccc3)C(c3ccc(Cl)cc3)[C@H]2C(=O)N1c1ccc(Cc2ccc(N3C(=O)[C@@H]4ON(c5ccccc5)C(c5ccc(Cl)cc5)[C@@H]4C3=O)cc2)cc1` (some centres not stated) yielded a TGI greater than 100 µM.

`Oc1cc(C2OCCCO2)cc(O)c1O` registered a TGI greater than 100 µM.

A further assay relates to SK-OV-3 ovarian. In words: DTP human tumour cell line panel, 48 h.
As to `O=C1c2ccc3c4ccccc4n(Cc4ccccc4)c3c2C(=O)N1c1ccccc1`, the concentration for total growth inhibition (TGI) is greater than 55.6 µM.

Consider `O=C1[C@H]2ON(c3ccccc3)C(c3ccc(Cl)cc3)[C@H]2C(=O)N1c1ccc(Cc2ccc(N3C(=O)[C@@H]4ON(c5ccccc5)C(c5ccc(Cl)cc5)[C@@H]4C3=O)cc2)cc1` (some centres not stated), for which the TGI was greater than 100 µM.

As to `Oc1cc(C2OCCCO2)cc(O)c1O`, the TGI is greater than 100 µM.

The test system of another assay is SN12C renal. As to the kind of experiment: DTP human tumour cell line panel, 48 h.
`COc1ccc(C2c3cc(OC)c(OC)cc3C(Cc3ccc([N+](=O)[O-])cc3)C2c2ccc([N+](=O)[O-])cc2)cc1OC` (configuration not stated) yielded a TGI greater than 100 µM.

Regarding `O=C1c2ccc3c4ccccc4n(Cc4ccccc4)c3c2C(=O)N1c1ccccc1`, the TGI worked out at 30.1 µM.

On to `O=C1[C@H]2ON(c3ccccc3)C(c3ccc(Cl)cc3)[C@H]2C(=O)N1c1ccc(Cc2ccc(N3C(=O)[C@@H]4ON(c5ccccc5)C(c5ccc(Cl)cc5)[C@@H]4C3=O)cc2)cc1` (some centres not stated), for which the total growth inhibition concentration (TGI) was greater than 100 µM.

For the molecule `Oc1cc(C2OCCCO2)cc(O)c1O`, the TGI was greater than 100 µM.

Another assay deals with SNB-19 CNS. As to the kind of experiment: DTP human tumour cell line panel, 48 h.
As to `COc1ccc(C2c3cc(OC)c(OC)cc3C(Cc3ccc([N+](=O)[O-])cc3)C2c2ccc([N+](=O)[O-])cc2)cc1OC` (configuration not stated), the TGI is greater than 100 µM.

`O=C1c2ccc3c4ccccc4n(Cc4ccccc4)c3c2C(=O)N1c1ccccc1` registered a concentration for total growth inhibition (TGI) of 42.3 µM.

Turning to `O=C1[C@H]2ON(c3ccccc3)C(c3ccc(Cl)cc3)[C@H]2C(=O)N1c1ccc(Cc2ccc(N3C(=O)[C@@H]4ON(c5ccccc5)C(c5ccc(Cl)cc5)[C@@H]4C3=O)cc2)cc1` (some centres not stated), the TGI is greater than 100 µM.

Regarding `Oc1cc(C2OCCCO2)cc(O)c1O`, the TGI was greater than 100 µM.

A further assay deals with SNB-75 CNS. As to the kind of experiment: DTP human tumour cell line panel, 48 h.
As for `COc1ccc(C2c3cc(OC)c(OC)cc3C(Cc3ccc([N+](=O)[O-])cc3)C2c2ccc([N+](=O)[O-])cc2)cc1OC` (configuration not stated), the TGI is greater than 100 µM.

The molecule `O=C1c2ccc3c4ccccc4n(Cc4ccccc4)c3c2C(=O)N1c1ccccc1` came in with a TGI of 27.7 µM.

In turn, `O=C1[C@H]2ON(c3ccccc3)C(c3ccc(Cl)cc3)[C@H]2C(=O)N1c1ccc(Cc2ccc(N3C(=O)[C@@H]4ON(c5ccccc5)C(c5ccc(Cl)cc5)[C@@H]4C3=O)cc2)cc1` (some centres not stated) came in with a TGI greater than 100 µM.

`Oc1cc(C2OCCCO2)cc(O)c1O` registered a TGI greater than 100 µM.

The test system of a further assay is SNB-78 CNS. As to the kind of experiment: DTP human tumour cell line panel, 48 h.
`COc1ccc(C2c3cc(OC)c(OC)cc3C(Cc3ccc([N+](=O)[O-])cc3)C2c2ccc([N+](=O)[O-])cc2)cc1OC` (configuration not stated): the TGI was greater than 100 µM.

For `O=C1c2ccc3c4ccccc4n(Cc4ccccc4)c3c2C(=O)N1c1ccccc1`, the TGI came out at 71.7 µM.

Molecule `O=C1[C@H]2ON(c3ccccc3)C(c3ccc(Cl)cc3)[C@H]2C(=O)N1c1ccc(Cc2ccc(N3C(=O)[C@@H]4ON(c5ccccc5)C(c5ccc(Cl)cc5)[C@@H]4C3=O)cc2)cc1` (some centres not stated) registered a TGI greater than 100 µM.

Molecule `Oc1cc(C2OCCCO2)cc(O)c1O` returned a TGI greater than 100 µM.

The subject of another assay is SR leukemia. In words: DTP human tumour cell line panel, 48 h.
For the molecule `O=C1c2ccc3c4ccccc4n(Cc4ccccc4)c3c2C(=O)N1c1ccccc1`, the TGI was 22.1 µM.

The molecule `O=C1[C@H]2ON(c3ccccc3)C(c3ccc(Cl)cc3)[C@H]2C(=O)N1c1ccc(Cc2ccc(N3C(=O)[C@@H]4ON(c5ccccc5)C(c5ccc(Cl)cc5)[C@@H]4C3=O)cc2)cc1` (some centres not stated) registered a TGI greater than 100 µM.

`Oc1cc(C2OCCCO2)cc(O)c1O`: the TGI is greater than 100 µM.

The next assay has as its system SW-620 colon. As to the kind of experiment: DTP human tumour cell line panel, 48 h.
In turn, `COc1ccc(C2c3cc(OC)c(OC)cc3C(Cc3ccc([N+](=O)[O-])cc3)C2c2ccc([N+](=O)[O-])cc2)cc1OC` (configuration not stated) gave a TGI greater than 100 µM.

With `O=C1c2ccc3c4ccccc4n(Cc4ccccc4)c3c2C(=O)N1c1ccccc1`, the TGI was determined as 20.1 µM.

`O=C1[C@H]2ON(c3ccccc3)C(c3ccc(Cl)cc3)[C@H]2C(=O)N1c1ccc(Cc2ccc(N3C(=O)[C@@H]4ON(c5ccccc5)C(c5ccc(Cl)cc5)[C@@H]4C3=O)cc2)cc1` (some centres not stated) showed a TGI greater than 100 µM.

As to `Oc1cc(C2OCCCO2)cc(O)c1O`, the TGI was greater than 100 µM.

Another assay has as its system TK-10 renal. As to the kind of experiment: DTP human tumour cell line panel, 48 h.
Take `COc1ccc(C2c3cc(OC)c(OC)cc3C(Cc3ccc([N+](=O)[O-])cc3)C2c2ccc([N+](=O)[O-])cc2)cc1OC` (configuration not stated): the TGI is greater than 100 µM.

`O=C1c2ccc3c4ccccc4n(Cc4ccccc4)c3c2C(=O)N1c1ccccc1` returned a TGI of 29 µM.

In turn, `O=C1[C@H]2ON(c3ccccc3)C(c3ccc(Cl)cc3)[C@H]2C(=O)N1c1ccc(Cc2ccc(N3C(=O)[C@@H]4ON(c5ccccc5)C(c5ccc(Cl)cc5)[C@@H]4C3=O)cc2)cc1` (some centres not stated) registered a TGI greater than 100 µM.

In turn, `Oc1cc(C2OCCCO2)cc(O)c1O` gave a TGI greater than 100 µM.

The next assay deals with U251 CNS. In words: DTP human tumour cell line panel, 48 h.
`COc1ccc(C2c3cc(OC)c(OC)cc3C(Cc3ccc([N+](=O)[O-])cc3)C2c2ccc([N+](=O)[O-])cc2)cc1OC` (configuration not stated): the TGI was greater than 100 µM.

`O=C1c2ccc3c4ccccc4n(Cc4ccccc4)c3c2C(=O)N1c1ccccc1` showed a TGI of 29.3 µM.

`O=C1[C@H]2ON(c3ccccc3)C(c3ccc(Cl)cc3)[C@H]2C(=O)N1c1ccc(Cc2ccc(N3C(=O)[C@@H]4ON(c5ccccc5)C(c5ccc(Cl)cc5)[C@@H]4C3=O)cc2)cc1` (some centres not stated): the TGI is greater than 100 µM.

`Oc1cc(C2OCCCO2)cc(O)c1O` gave a concentration for total growth inhibition (TGI) greater than 100 µM.

The test system of another assay is UACC-257 melanoma. As to the kind of experiment: DTP human tumour cell line panel, 48 h.
In turn, `COc1ccc(C2c3cc(OC)c(OC)cc3C(Cc3ccc([N+](=O)[O-])cc3)C2c2ccc([N+](=O)[O-])cc2)cc1OC` (configuration not stated) gave a TGI greater than 100 µM.

For the molecule `O=C1c2ccc3c4ccccc4n(Cc4ccccc4)c3c2C(=O)N1c1ccccc1`, the TGI is 29.9 µM.

The molecule `O=C1[C@H]2ON(c3ccccc3)C(c3ccc(Cl)cc3)[C@H]2C(=O)N1c1ccc(Cc2ccc(N3C(=O)[C@@H]4ON(c5ccccc5)C(c5ccc(Cl)cc5)[C@@H]4C3=O)cc2)cc1` (some centres not stated) yielded a concentration for total growth inhibition (TGI) greater than 100 µM.

In turn, `Oc1cc(C2OCCCO2)cc(O)c1O` registered a TGI greater than 100 µM.

The next assay relates to UACC-62 melanoma. In words: DTP human tumour cell line panel, 48 h.
Molecule `COc1ccc(C2c3cc(OC)c(OC)cc3C(Cc3ccc([N+](=O)[O-])cc3)C2c2ccc([N+](=O)[O-])cc2)cc1OC` (configuration not stated) displayed a total growth inhibition concentration (TGI) greater than 100 µM.

The molecule `O=C1c2ccc3c4ccccc4n(Cc4ccccc4)c3c2C(=O)N1c1ccccc1` gave a TGI of 31.7 µM.

In the case of `O=C1[C@H]2ON(c3ccccc3)C(c3ccc(Cl)cc3)[C@H]2C(=O)N1c1ccc(Cc2ccc(N3C(=O)[C@@H]4ON(c5ccccc5)C(c5ccc(Cl)cc5)[C@@H]4C3=O)cc2)cc1` (some centres not stated), the total growth inhibition concentration (TGI) was greater than 100 µM.

`Oc1cc(C2OCCCO2)cc(O)c1O`: the TGI is greater than 100 µM.

Another assay concerns UO-31 renal. In words: DTP human tumour cell line panel, 48 h.
As for `COc1ccc(C2c3cc(OC)c(OC)cc3C(Cc3ccc([N+](=O)[O-])cc3)C2c2ccc([N+](=O)[O-])cc2)cc1OC` (configuration not stated), the TGI is greater than 100 µM.

Take `O=C1c2ccc3c4ccccc4n(Cc4ccccc4)c3c2C(=O)N1c1ccccc1`: the TGI worked out at 30.1 µM.

Molecule `O=C1[C@H]2ON(c3ccccc3)C(c3ccc(Cl)cc3)[C@H]2C(=O)N1c1ccc(Cc2ccc(N3C(=O)[C@@H]4ON(c5ccccc5)C(c5ccc(Cl)cc5)[C@@H]4C3=O)cc2)cc1` (some centres not stated) returned a TGI greater than 100 µM.

`Oc1cc(C2OCCCO2)cc(O)c1O` returned a TGI greater than 100 µM.

In another assay the test system is XF 498 CNS. As to the kind of experiment: DTP human tumour cell line panel, 48 h.
`COc1ccc(C2c3cc(OC)c(OC)cc3C(Cc3ccc([N+](=O)[O-])cc3)C2c2ccc([N+](=O)[O-])cc2)cc1OC` (configuration not stated): the TGI was greater than 100 µM.
